Measured values reported in US12338221B2, “Process for preparation of sulfentrazone with tank-mix compatibility” (UPL LTD, priority 2021, dated 2025).

Assay: Tank mix compatibility test with other pesticide active compound
Type: physicochemical
Details: FIG. 2 and FIG. 3
Description: Samples prepared according to Example 6 and Example 7 were tested for compatibility with clomazone EC formulation (UPSTAGE®). The tank mix compatibility was checked as per the dosages mentioned below: [table] Method: Total 250 ml of spray dilution solution was prepared using above mentioned composition wherein 7 ml of each sample 1 and sample 2 were mixed with 10 ml of UPSTAGE® and mixture was diluted with water.

| Structure (SMILES) | Physical incompatibilities when mixed with a clomazone EC formulation |
| --- | --- |
| Cc1nn(-c2cc(NS(C)(=O)=O)c(Cl)cc2Cl)c(=O)n1C(F)F [conventionally prepared sulfentrazone, N[2,4-dichloro-5-[4-(difluoromethyl)-4,5-dihydro-3-methyl-5-oxo-1H-1,2,4-triazol-1-yl]phenyl]methanesulfonamide] | moderate to severe physical incompatibilities |
| Cc1nn(-c2cc(NS(C)(=O)=O)c(Cl)cc2Cl)c(=O)n1C(F)F [sulfentrazone prepared in accordance with the present disclo] [N[2,4-dichloro-5-[4-(difluoromethyl)-4,5-dihydro-3-methyl-5-oxo-1H-1,2,4-triazol-1-yl]phenyl]methanesulfonamide] | did not result in any physical incompatibilities |
